# Data: patent publication US10709769B2, “Use of endostatin peptides for the treatment of fibrosis” (University of Pittsburgh—Of the Commonwealth System of …, priority 2009, dated 2020)
# Legend:
# [1] = tested on: human primary skin fibroblasts; assay: TGF-β-induced ECM production in primary skin (dermal) fibroblasts, western blot; type: cell-based; conditions: dermal fibroblasts from healthy controls, SSc or morphea patients
# Experimental: Human primary lung and skin fibroblasts were cultured. The explanted lungs of normal organ donors, patients with SSc or IPF, and clinically involved skin of SSc patients, a morphea patient and healthy donors were used for primary fibroblast culture. Approximately 2-cm pieces of peripheral lung and skin were minced and fibroblasts were cultured in Dulbecco's modified Eagle's medium (DMEM; Mediatech, Herndon, Va.) supplemented with 10% FBS, penicillin, streptomycin, and anti-mycotic agent, as previously described (Feghali et al., Arthritis Rheum 1999; 42:1451-7). All the cells were used between passages 3-6.
# (§1) Cellular lysates were obtained from cultured fibroblasts as previously described (Pilewski et al., Am J Pathol 2005; 166:399-407). […] Cellular lysates were analyzed by western blot. Signals were detected following incubation with horseradish peroxidase-conjugated secondary antibody and chemiluminescence (Perkin Elmer Life Sciences, Inc., Boston, Mass.). The intensity of individual bands with expected molecular sizes was semi-quantitatively analyzed using the image/J® software available at on the internet (/rsb.info.nih.gov/ij/index.html), and normalized to individual GAPDH intensity. […]
# [2] = tested on: fibrotic lung fibroblasts from patients with IPF; assay: FN and Col1α1 in fibrotic lung fibroblasts without TGF-β stimulation, western blot; type: cell-based, human
# Description: FIGS. 1A-1F. ECM production in recombinant endostatin- and endostatin-derived peptide-treated fibroblasts in combination with TGF-β stimulation. A: FN and Col1α1 expression in human normal lung fibroblasts (NL) treated with vehicle (V), rE alone, or both with prior TGF-β stimulation. Proteins were detected western blot. GAPDH was used as a loading control for lysates. B: FN and Col1α1 expression of endostatin polypeptide-treated lung fibroblasts following TGF-β stimulation in primary pulmonary fibroblasts from a healthy control, a patient with SSc, and a patient with IPF. C: Graphical summary of FN and Col1α1 expression in lung fibroblasts obtained using fibroblasts from 4 healthy controls (NL), 3 patients with SSc, and 3 patients with IPF. Intensity of bands was normalized to that of GAPDH and expressed as a ratio to Vehicle (V). Paired-t test was used for statistical analysis. * P<0.04, ** P<0.01. D: Representative result of FN and Col1α1 levels in human skin fibroblasts obtained from a patient with morphea and a patient with SSc. E: Representative result of FN and Col1α1 expression in fibrotic fibroblasts obtained from a patients with IPF treated with V, 5 μg/ml of rE, or endostatin polypeptides alone (left). IPF fibroblasts were treated with different concentrations (5, 10, and 20 μg/ml) of E4. DMSO (V) was added in a volume equivalent to that in the lane corresponding to 20 μg/ml of E4 (right). […]
# as §1
# human skin explants = assay: Ex vivo human skin fibrosis organ culture, dermal thickness; type: cell-based
# Experimental: Human abdominal skin was obtained from corrective plastic surgery. As previously described (Yasuoka et al., The Open Rheumatol J 2008; 2:17-22), subcutaneous fat tissue was removed uniformly and skin tissue was cut into 1.5 cm×1.5 cm sections. The following were injected intradermally in a total volume of 100 μl 1×PBS: rE alone (1-10 μg/ml), endostatin peptides alone (10 μg/ml), rE or endostatin peptides (1-20 μg/ml) in combination with TGF-β (10 ng/ml), and TGF-β alone (10 ng/ml). In some experiments, human skin was first injected with TGF-β for 48 h followed by recombinant endostain (rE) administration in the same injection site as TGF-β. Explants containing complete epidermal and dermal layers were cultured in an air liquid interface with the epidermal and keratin layers side up and exposed to air. The culture medium was replaced every other day. After 1 or 2 weeks, skin tissue corresponding to an area with 8-mm diameter centered around the injection site was harvested using disposable 8-mm Acu Punch® (Acuderm inc., Lauderdale, Fla.). Skin tissue was fixed in 10% formalin prior to embedding in paraffin.
# Six μm sections of paraffin-embedded human and mouse skin tissues were stained with hematoxylin and eosin (H&E). In some experiments, sections were stained with Masson trichrome which identifies collagens. Images were taken on a Nikon Eclipse 800 microscope. The thickness of the dermis was measured in 6 random fields of each section using the image/J® software. Data are shown in arbitrary units.
# lysyl oxidase (LOX) = assay: TGFβ-induced LOX production in primary human lung fibroblasts; type: cell-based; conditions: normal lung fibroblasts passage 4, TGF-β followed 30 minutes later by E4, 48 hrs
# Experimental: FIG. 13. E4 reduces fibrosis in vitro by blocking TGFβ-induced LOX production in primary human lung fibroblasts. Normal lung fibroblasts in passage 4 were treated with vehicle, E4, TGFbeta, or TGFbeta followed 30 min. later by E4. Media conditioned by the fibroblasts were analyzed using Western blot analysis after 48 hour. Lane 1: Vehicle (DMSO); Lane 2: E-4; Lane 3: TGF 3; Lane 4: TGF 3 followed by E4.
# E4-mediated reduction of LOX was detected also was detected in vitro. Normal lung fibroblasts in passage 4 were treated with vehicle, E4, TGFβ, or TGF-β followed 30 minutes later by E4 (FIG. 13). Media conditioned by the fibroblasts were analyzed using western blot analysis after 48 hrs.
# [3] = no TGF-β, 5, 10 and 20 μg/ml, vs vehicle control
substance,measurement,setting,value
"H-^133SYCETWRTEAPSATGQASSLLGGRLLGQSAASCHHAYIVLCIENSFMT^180-CONH2 (H-SYCETWRTEAPSATGQASSLLGGRLLGQSAASCHHAYIVLCIENSFMT-NH2; cysteine pairing not given here; UniProt P39060 1704-1751, looked up, fragment) [E4, amino acids 133-180 of human endostatin; differs from E3 by the presence of a carboxy-terminal amide]","TGF-β-induced ECM production (FN, Col1α1)",[1],reduced
same,FN and Col1α1 levels,"[2]; no TGF-β stimulation, peptide alone",decreased
same,Col1α1 levels,[2]; [3],dose-dependently reduced
same,FN levels,[2]; [3],modest effect
same,"TGF-β-induced skin fibrosis (dermal thickness), dose response","human skin explants; 1, 5, 10, 20 μg/ml with TGF-β 10 ng/ml, effect at 5-20 μg/ml",clearly ameliorated
same,"dermal thickness, baseline effect","human skin explants; injected alone without TGF-β, rE 1, 5, 10 μg/ml, peptides 10 μg/ml",tendency towards reduction
same,development of fibrosis as measured by dermal thickness,"human skin explants; peptides 10 μg/ml with TGF-β 10 ng/ml, vs TGF-β alone",significantly abolished
same,level of LOX (western blot of conditioned media),lysyl oxidase (LOX),significantly reduced
